Results published in patent publication US20230053540A1, “TREATMENT OF LIVER INJURY” (Massachusetts Institute of Technology, priority 2019, published 2023).

System: hepatocytes
Test: Seq-Well scRNA-Seq of hepatocytes after APAP overdose (signature scores, DEG vs untreated)
Assay type: in vivo, mouse
Settings: A6 vs UT

Compound: CC(=O)Nc1ccc(O)cc1 [APAP, acetaminophen]
- Plbd2 pct.1: 0.344
- Plcxd2 A6logFC: −0.2752
- Plcxd2 avg_logFC: −0.2752
- Plcxd2 pct.1: 0.162
- Plec avg_logFC: 0.4675
- Plec pct.1: 0.422
- Plek avg_logFC: 0.3089
- Plek pct.1: 0.11
- Plin2 avg_logFC: 1.461
- Plin5 avg_logFC: 0.2963
- Plin5 pct.1: 0.456
- Plscr1 avg_logFC: 0.4445
- Pmpcb avg_logFC: −0.2636
- Pmpcb pct.1: 0.356
- Pnkd A6logFC: −0.2928
- Pon1 avg_logFC: −0.6858
- Ppan avg_logFC: 0.2724
- Ppan pct.1: 0.255
- Ppara avg_logFC: −0.2871
- Ppara pct.1: 0.234
- Ppib avg_logFC: −0.5897
- Ppip5k2 A6logFC: 0.3209
- Ppip5k2 avg_logFC: 0.3209
- Ppip5k2 pct.1: 0.344
- Ppl avg_logFC: 0.8798
- Ppm1g A6logFC: 0.2522
- Ppm1g avg_logFC: 0.2522
- Ppm1g pct.1: 0.358
- Ppm1k avg_logFC: −0.5584
- Ppp1r3b avg_logFC: −0.4027
- Ppp1r3b pct.1: 0.098
- Ppp2r5a avg_logFC: −0.2605
- Ppp2r5a pct.1: 0.43
- Prdx1 avg_logFC: −0.5292
- Prdx4 avg_logFC: −0.4176
- Prdx4 pct.1: 0.372
- Proc A6logFC: −0.2707
- Prpf19 A6logFC: 0.2588
- Prpf19 avg_logFC: 0.2588
- Prpf19 pct.1: 0.432
- Prrc2c avg_logFC: 0.4393
- Prrc2c pct.1: 0.415
- Psap A6logFC: 0.2578
- Psap avg_logFC: 0.2578
- Psap pct.1: 0.556
- Psat1 avg_logFC: 0.3012
- Psen2 avg_logFC: −0.9474
- Psma1 A6logFC: −0.2567
- Psma1 avg_logFC: −0.2567
- Psma1 pct.1: 0.353
- Psma6 A6logFC: −0.3035
- Psma6 avg_logFC: −0.3035
- Psma6 pct.1: 0.501
- Psme1 avg_logFC: −0.394
- Psme1 pct.1: 0.26
- Ptpmt1 A6logFC: −0.256
- Ptpmt1 avg_logFC: −0.256
- Ptpmt1 pct.1: 0.372
- Ptpn1 avg_logFC: 0.4163
- Ptpn1 pct.1: 0.353
- Ptpn11 A6logFC: 0.2778
- Ptpn11 avg_logFC: 0.2778
- Ptpn11 pct.1: 0.37
- Ptprc avg_logFC: 0.4165
- Pvrl2 A6logFC: −0.2613
- Qdpr avg_logFC: −0.5236
- Qdpr pct.1: 0.606
- Rab6a A6logFC: 0.3234
- Rabac1 A6logFC: −0.266
- Rabac1 avg_logFC: −0.266
- Rabac1 pct.1: 0.346
- Rad54l2 avg_logFC: 0.3887
- Rad54l2 pct.1: 0.325
- Ranbp2 avg_logFC: 0.5985
- Rangap1 A6logFC: 0.2962
- Rangap1 avg_logFC: 0.2962
- Rangap1 pct.1: 0.387
- Rap1b A6logFC: 0.3408
- Rap1b avg_logFC: 0.3408
- Rap1b pct.1: 0.406
- Rarres2 avg_logFC: −0.5522
- Rassf3 A6logFC: 0.2912
- Rassf3 avg_logFC: 0.2912
- Rassf3 pct.1: 0.422
- Rbm25 A6logFC: 0.4215
- Rbm39 A6logFC: 0.2657
- Rbm39 avg_logFC: 0.2657
- Rbm39 pct.1: 0.506
- Rcan1 avg_logFC: 0.7073
- Rdh7 avg_logFC: −0.4186
- Reep3 A6logFC: 0.409
- Reep3 avg_logFC: 0.409
- Reep3 pct.1: 0.535
- Rell1 avg_logFC: 0.5912
- Retnlg avg_logFC: 0.3751
- Retsat avg_logFC: 0.4911
- Rgs2 avg_logFC: 0.3957
- Rgs2 pct.1: 0.138
- Riok3 A6logFC: 0.2916
- Riok3 avg_logFC: 0.2916
- Riok3 pct.1: 0.43
- Rmnd5a A6logFC: 0.3189
- Rmnd5a avg_logFC: 0.3189
- Rmnd5a pct.1: 0.47
- Rnase4 avg_logFC: −1.049
- Rnaseh2c A6logFC: −0.3257
- Rnd3 avg_logFC: 0.3655
- Rnd3 pct.1: 0.284
- Rnf144a avg_logFC: 0.313
- Rnf144a pct.1: 0.177
- Rnf169 A6logFC: 0.334
- Rnf169 avg_logFC: 0.334
- Rnf169 pct.1: 0.315
- Rock1 A6logFC: 0.2608
- Rock1 avg_logFC: 0.2608
- Rock1 pct.1: 0.413
- Rock2 avg_logFC: 0.5941
- Romo1 A6logFC: −0.3359
- Rora avg_logFC: 0.6444
- Rpl13a avg_logFC: −0.3815
- Rpl13a pct.1: 0.704
- Rpl13 avg_logFC: −0.2988
- Rpl13 pct.1: 0.294
- Rpl14 A6logFC: −0.2776
- Rpl14 avg_logFC: −0.2776
- Rpl14 pct.1: 0.372
- Rpl34 A6logFC: −0.2976
- Rpl36al avg_logFC: −0.4755
- Rpl36al pct.1: 0.284
- Rplp1 avg_logFC: −0.5047
- Rplp1 pct.1: 0.449
- Rps15 avg_logFC: −0.4552
- Rps15 pct.1: 0.301
- Rps18 avg_logFC: −0.4885
- Rps18 pct.1: 0.337
- Rps24 A6logFC: −0.2625
- Rps24 avg_logFC: −0.2625
- Rps24 pct.1: 0.453
- Rps27l avg_logFC: −0.8659
- Rraga A6logFC: 0.2626
- Rraga avg_logFC: 0.2626
- Rraga pct.1: 0.337
- Rsl1d1 A6logFC: 0.3461
- S100a8 avg_logFC: 1.128
- S100a9 avg_logFC: 1.343
- Saa4 avg_logFC: −0.571
- Sat1 avg_logFC: 0.6887
- Sc5d avg_logFC: −0.5009
- Sc5d pct.1: 0.58
- Scaf11 A6logFC: 0.3598
- Sco2 avg_logFC: −0.2605
- Sco2 pct.1: 0.353
- Scp2 avg_logFC: −0.5191
- Sdad1 avg_logFC: 0.3124
- Sdad1 pct.1: 0.289
- Sdc3 pct.1: 0.103
- Sdc4 avg_logFC: 0.6196
- Sdr9c7 A6logFC: −0.26
- Sec61b A6logFC: −0.2903
- Sec1412 avg_logFC: −0.7897
- Selenbp1 avg_logFC: −0.4937
- Selenbp1 pct.1: 0.401
- Selenbp2 avg_logFC: −1.009
- Selo A6logFC: −0.2574
- Selo avg_logFC: −0.2574
- Selo pct.1: 0.217
- Sema4g A6logFC: −0.2505
- Sema4g avg_logFC: −0.2505
- Sema4g pct.1: 0.27
- Serbp1 A6logFC: 0.3227
- Serbp1 avg_logFC: 0.3227
- Serbp1 pct.1: 0.659
- Serpina1a avg_logFC: −0.3785
- Serpina1e avg_logFC: −0.2684
- Serpina1e pct.1: 0.99
- Serpina3m avg_logFC: 0.9674
- Serpina3n avg_logFC: 0.8483
- Serpina12 avg_logFC: −0.4534
- Serpina12 pct.1: 0.232
- Serpina1d avg_logFC: −0.289
- Serpina1d pct.1: 0.926
- Sf3b1 A6logFC: 0.2888
- Sf3b1 avg_logFC: 0.2888
- Sf3b1 pct.1: 0.508
- Sgk1 A6logFC: 0.2843
- Shmt1 avg_logFC: −0.3932
- Shmt1 pct.1: 0.339
- Sigmar1 A6logFC: −0.3055
- Slc4a4 avg_logFC: 0.4203
- Slc4a4 pct.1: 0.513
- Slc10a2 avg_logFC: 0.299
- Slc10a2 pct.1: 0.255
- Slc16a2 A6logFC: −0.252
- Slc16a2 avg_logFC: −0.252
- Slc16a2 pct.1: 0.255
- Slc16a6 avg_logFC: 0.9114
- Slc16a10 A6logFC: −0.2548
- Slc16a10 avg_logFC: −0.2548
- Slc16a10 pct.1: 0.196
- Slc20a1 avg_logFC: 0.3572
- Slc20a1 pct.1: 0.284
- Slc22a1 avg_logFC: −0.7979
